This note sets out measurements from ChEMBL document CHEMBL1201862, “PubChem BioAssay data set” (2004).

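Protocol summary: plate cells (96-well), add compound at 5 concentrations, incubate 48 h, interpolate endpoints linearly. The concentration for 50% growth inhibition is given as GI50.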 Active and inactive are the calls of the source. Cut-off read from the data, not from the text of the source: active = GI50 up to about 1.1 µM and inactive = higher. Bounds are passed on as bounds.

Common to all, as to experiment: NCI-60 cell line screen, 48 h
In test [1] the test system is MDA-N.
Test [2] deals with SW-620.
Test [3] relates to SN12C.
In test [4] the test system is SF-295.
Test [5] relates to UO-31.
Test [6] has as its system MCF7.
The subject of test [7] is A549.
Test [8] has as its system HCC 2998.
Test [9] relates to OVCAR-3.
The subject of test [10] is MDA-MB-435.
The test system of test [11] is MOLT-4.
For test [12], the system named is SK-OV-3.
In test [13] the test system is COLO 205.
Test [14] relates to M14.
Test [15] concerns TK-10.
Test [16] deals with HOP-62.
For test [17], the system named is NCI-H460.
Test [18] deals with K562.
Test [19] concerns NCI-H522.
Test [20] has as its system LOX IMVI.

As to `O=C(Cc1ccccc1)NN1C(=O)/C(=C\c2ccccc2)S/C1=N\c1ccccc1`, the GI50 in [1], in test [2], in test [3], in [4], in test [5] and in test [6] was > 100 µM (inactive) each time. Also, the GI50 in [7], in test [8], in [9], in [10], in test [11] and in [12] was > 100 µM (inactive) each time. Moreover, the GI50 in test [13], in test [14], in test [15], in [16] and in test [17] was > 100 µM (inactive) throughout.
In the case of `COC(NC(=O)Nc1ccc(C)cc1)(C(F)(F)F)C(F)(F)F`, the GI50 in [1] is 26.4 µM (inactive); in test [2], 20.4 µM (inactive); in test [3], 28.1 µM (inactive); in test [4], 26.5 µM (inactive); in test [5], 17.5 µM (inactive); in test [6] it was 41.3 µM (inactive). Further, the GI50 in test [7] was 34.8 µM (inactive); in [9], 42.8 µM (inactive); in test [10], 30.9 µM (inactive); in test [18] it was 8.39 µM (inactive); in test [11], 9.08 µM (inactive); in [19], 22 µM (inactive). Further, the GI50 was 26.1 µM (inactive) in test [12]; 18.7 µM (inactive) in test [13]; 29.5 µM (inactive) in [14]; 42.8 µM (inactive) in [15]; 3.08 µM (inactive) in [20]; 42.8 µM (inactive) in test [16]. Also, the GI50 in [17] is 32 µM (inactive).
On to `N=C1C(O)C2(I)c3ccccc3N3C(=N)C(O)C4c5ccccc5N1C4C32` (stereo not drawn), for which the GI50 in [1] was 42.7 µM (inactive); in test [2], 52.8 µM (inactive); in test [3] it was 54.3 µM (inactive); in [4], 47.8 µM (inactive); in [5] it was > 100 µM (inactive); in [6], 19.6 µM (inactive). The GI50 in test [7] is 51.8 µM (inactive); in [9], 32.1 µM (inactive); in test [10], 20.4 µM (inactive); in test [18] it was 26.4 µM (inactive); in [11], 27.5 µM (inactive); in test [19], 25.9 µM (inactive). For the same compound, the GI50 in test [12] was 40.6 µM (inactive); in [13], 26.2 µM (inactive); in test [14] it was 59 µM (inactive); in test [15] it was > 100 µM (inactive); in test [20] it was 39 µM (inactive); in [16] it was 38.3 µM (inactive). Further, the GI50 in test [17] was 37.7 µM (inactive).
`CCOc1cn(C2CC(O)C(CO)O2)c(=O)[nH]c1=O` (stereo not drawn): the GI50 in test [1] is > 100 µM (inactive); in [2] it was > 100 µM (inactive); in test [3], > 100 µM (inactive); in test [5], > 100 µM (inactive); in [6], 45.9 µM (inactive); in test [7], > 100 µM (inactive). For the same compound, the GI50 in test [8], in test [9], in [10], in test [11], in [12] and in test [13] was > 100 µM (inactive) in each case. Besides, the GI50 in [14], in [15], in [20], in test [16] and in test [17] was > 100 µM (inactive) in each case.
Turning to `O=C([O-])C(O)C(O)C(=O)O.[K+]` (stereo not drawn) [POTASSIUM HYDROGENTARTRATE], the GI50 in test [1], in test [2], in [3], in test [4], in test [5] and in [6] was > 100 µM (inactive) each time. Further, the GI50 in test [7], in test [9], in [10], in test [18], in [11] and in test [19] was > 100 µM (inactive) throughout. Also, the GI50 in test [12], in [13], in test [14], in [15], in [20] and in [16] was > 100 µM (inactive) throughout. For the same compound, the GI50 in [17] is > 100 µM (inactive).
For the compound `Cc1nnc(Nc2ccccc2)o1`, the GI50 in test [1], in test [2], in test [3], in test [4], in test [5] and in [6] was > 100 µM (inactive) each time. Further, the GI50 in test [7], in test [9], in test [10], in [18], in test [11] and in test [19] was > 100 µM (inactive) in each case. In addition, the GI50 in test [12], in test [13], in test [14], in test [15] and in [20] was > 100 µM (inactive) each time.
Consider `NNc1ncc2c(n1)-c1ccccc1OC2`, for which the GI50 was > 100 µM (inactive) in [1]; 69.7 µM (inactive) in test [2]; 71.6 µM (inactive) in [3]; 36.1 µM (inactive) in [4]; 41.1 µM (inactive) in test [5]; 50.1 µM (inactive) in [6]. In addition, the GI50 in test [7] is 96.2 µM (inactive); in test [9] it was 22.2 µM (inactive); in test [10], 70.5 µM (inactive); in test [18], 50.9 µM (inactive); in test [11] it was 22.5 µM (inactive); in test [19] it was 46.5 µM (inactive). Also, the GI50 in test [12] was 57.1 µM (inactive); in [13], 59.3 µM (inactive); in test [14] it was 52.4 µM (inactive); in test [15], > 100 µM (inactive); in test [20] it was 58.9 µM (inactive); in [16], 35.6 µM (inactive). The GI50 in test [17] is 32.3 µM (inactive).
As to `CC1(C)OCC(C2OC(On3nnc4ccc(Cl)cc43)C3OC(C)(C)OC23)O1` (stereo not drawn), the GI50 in test [1], in [2], in [3], in [4], in [6] and in test [7] was > 100 µM (inactive) in each case. The GI50 in test [9] was > 100 µM (inactive); in [10] it was > 100 µM (inactive); in [18], 22.4 µM (inactive); in test [11], > 100 µM (inactive); in [19], > 100 µM (inactive); in test [12] it was > 100 µM (inactive). Further, the GI50 in test [13], in [14], in test [15], in test [20], in test [16] and in [17] was > 100 µM (inactive) each time.
`NC1=CN2c3ccccc3N(CC(=O)N3CCOCC3)C2C=C1` (stereo not drawn): the GI50 in test [1], in test [2], in test [3], in test [4], in [5] and in test [6] was > 100 µM (inactive) in each case. Moreover, the GI50 in [7], in test [10], in [18], in test [11], in [19] and in [12] was > 100 µM (inactive) in each case. The GI50 in test [13], in [14], in [15], in test [20], in test [16] and in test [17] was > 100 µM (inactive) each time.
Regarding `COC(=O)Cc1c([C@H]2[C@H](CC(=O)OC)c3ccccc3N2C(C)=O)[nH]c2ccccc12`, the GI50 is > 100 µM (inactive) in [1]; > 100 µM (inactive) in test [2]; > 100 µM (inactive) in test [3]; 72.8 µM (inactive) in test [4]; 39.9 µM (inactive) in test [5]; 97.7 µM (inactive) in test [7]. The GI50 in test [9] is > 100 µM (inactive); in [10] it was > 100 µM (inactive); in test [18], 50.8 µM (inactive); in test [11], 54.8 µM (inactive); in [19], 71 µM (inactive); in test [12], > 100 µM (inactive). Besides, the GI50 in test [13] was 67.1 µM (inactive); in test [14], > 100 µM (inactive); in test [15], > 100 µM (inactive); in test [20], > 100 µM (inactive); in [16] it was > 100 µM (inactive); in test [17] it was 96.8 µM (inactive).
As for `COC(=O)C12OCC34C(CC5C(C)=CC(=O)C(O)C5(C)C3C(O)C1O)OC(=O)C(OC(=O)CC(C)C)C24` (stereo not drawn), the GI50 was 0.00142 µM (active) in test [1]; 0.002 µM (active) in [2]; 0.00366 µM (active) in [3]; 0.00158 µM (active) in test [4]; 0.00738 µM (active) in [5]; 0.0013 µM (active) in [7]. Further, the GI50 is 0.000803 µM (active) in test [8]; 0.000906 µM (active) in test [9]; 0.00103 µM (active) in test [10]; 0.000352 µM (active) in test [19]; 0.0031 µM (active) in test [12]; 0.00237 µM (active) in [13]. For the same compound, the GI50 in test [14] was < 0.0381 µM (active); in [15], 0.0444 µM (active); in [20], 0.000548 µM (active); in test [16], 0.00222 µM (active); in test [17] it was 0.00046 µM (active).
